Test results from patent US6509367B1 (priority 2001, dated 2003).
Like-named read-outs stand apart in the source and are kept apart here.

What was measured:
mice [1] = experiment: Tail-flick antinociception in mice, compound alone (agonism test); type: in vivo; conditions: Mus musculus, iv
Experimental: (§1) Male ICR mice (25-32 g), purchased from Harlan (Dublin, Va.), were housed in groups of five. All animals were kept in a temperature-controlled (20-22° C.) environment with a 12-hour light-dark cycle (lights on at 7 a.m.). Separate mice were used for testing each drug dose in the in vivo behavioral procedures. The mice were maintained on a […] light: dark cycle, and received food and water ad libitum. Brain tissue for binding studies was obtained from male Sprague-Dawley rats (150-200 g) purchased from Harlan Laboratories (Dublin, Va.).
(§2) Measurement of spontaneous activity in mice occurred in standard activity chambers interfaced with a Digiscan Animal Activity Monitor (Omnitech Electronics, Inc., Columbus, Ohio). A standard tail-flick apparatus (described by Dewey et al., 1970) and a digital thermometer (Fisher Scientific, Pittsburgh, Pa.) were used to measure antinociception and rectal temperature, respectively.
(§3) All drugs were administered to the mice intravenously (i.v.) in the tail vein at a volume of 0.1 ml/10 g.
(§4) Maximum latency of 10 sec was used.

CB1 receptor = CB1 receptor (Rattus norvegicus, UniProt P20272); experiment: biochemical; type: binding; conditions: for Ki: 1 nM [3H] CP 55,940, rat whole brain P2 membranes, 30° C. for 1 hr; for CB1 binding affinity, fold decrease on shortening the n-pentyl amide: compared to O-1269
CB1 receptor, sequence (P20272 whole entry): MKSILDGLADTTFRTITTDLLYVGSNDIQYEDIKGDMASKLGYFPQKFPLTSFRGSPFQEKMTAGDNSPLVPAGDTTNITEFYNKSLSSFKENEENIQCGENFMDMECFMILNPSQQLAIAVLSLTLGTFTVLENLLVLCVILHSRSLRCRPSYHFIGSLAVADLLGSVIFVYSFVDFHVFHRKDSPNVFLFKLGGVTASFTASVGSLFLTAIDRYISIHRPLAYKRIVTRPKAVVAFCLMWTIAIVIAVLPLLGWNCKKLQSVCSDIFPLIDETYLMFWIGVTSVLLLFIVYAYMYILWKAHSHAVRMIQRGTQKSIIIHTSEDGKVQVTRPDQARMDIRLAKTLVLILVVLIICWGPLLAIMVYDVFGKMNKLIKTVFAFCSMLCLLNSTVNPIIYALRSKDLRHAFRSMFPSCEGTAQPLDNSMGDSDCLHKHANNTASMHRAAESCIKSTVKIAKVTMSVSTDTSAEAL
Experimental: as §1
All assays, as described briefly below, were performed in triplicate, and the results represent the combined data from three to six individual experiments. Following decapitation and rapid removal of the brain, whole brain was homogenized and centrifuged. The resulting pellet was termed P1. The supernatant was saved and combined with the two subsequent supernatants obtained from washing of the P1 pellet. The combined supernatant fractions were centrifuged, resulting in the P2 pellet. After further incubation and centrifuging, this pellet was resuspended in assay buffer to a protein concentration of approximately 2 mg/ml. The membrane preparation was quickly frozen in a bath solution of dry ice and 2-methylbutane (Sigma Chemical Co., St. Louis, Mo.), then stored at −80° C. for no more than 2 weeks. […] Binding was initiated by the addition of 150 μg of P2 membrane to test tubes containing 1 nM of [3H] […] Following incubation at 30° C. for 1 hr, binding was terminated by addition of ice-cold buffer and vacuum filtration through pretreated filters in a 12-well sampling manifold (Millipore, Bedford, Mass.). After washing, filters were placed into plastic scintillation vials (Packard, Downer Grove, Ill.) and shaken. The quantity of radioactivity present was determined by liquid scintillation spectrometry.

mice [2] = experiment: Rectal temperature (hypothermia) in mice, compound alone (agonism test); type: in vivo; conditions: Mus musculus, iv
Experimental: as §1, §2, §3, §4

mice [3] = experiment: Spontaneous (locomotor) activity in mice, compound alone (agonism test); type: in vivo; conditions: for ED50: mice, i.v.; for Max stim of spontaneous locomotor activity, Compound Alone (in words): at the dose(s) [mg/kg] given in parentheses in the cell; for Max % inhibit of spontaneous locomotor activity, Compound Alone (in words: stimulation instead of inhibition): doses in mg/kg
Experimental: as §1, §2, §3, §4

mice [4] = experiment: Spontaneous activity in mice, compound in combination with 3 mg/kg Δ^9-THC (antagonism test); type: in vivo; conditions: for SA: maximum % antagonism of 3 mg/kg Δ^9-THC: analog 10 min before Δ^9-THC; for Max stim of spontaneous locomotor activity, Compound with 3 mg/kg Δ^9-THC: at 30 mg/kg i.v.
Experimental: as §1, §2, §3, §4

mice [5] = experiment: Rectal temperature in mice, compound in combination with 3 mg/kg Δ^9-THC (antagonism test); type: in vivo; conditions: at 10 mg/kg i.v.
Experimental: as §1, §2, §3, §4

mice [6] = experiment: Tail-flick antinociception in mice, compound in combination with 3 mg/kg Δ^9-THC (antagonism test); type: in vivo
Experimental: as §1, §2, §3, §4

[7] = 20 min, i.v., 20 min post-injection, 95% confidence limits in parentheses, * = estimated ED50, dose-effect curve not linear, read-out: TF (tail flick, % MPE) ED50
[8] = 0.5 h, i.v., 30 min post-injection, 95% confidence limits in parentheses, read-out: RT (rectal temperature) ED50
[9] = Mus musculus, iv, 95% confidence limits in parentheses, * = estimated ED50, dose-effect curve not linear, read-out: SA (suppression of spontaneous activity) ED50
[10] = read-out: TF: > dose, 50% activity not achieved at this highest dose tested
[11] = read-out: RT: > dose, 50% activity not achieved at this highest dose tested
[12] = Mus musculus, iv, read-out: SA: > dose, 50% activity not achieved at this highest dose tested
[13] = Mus musculus, iv, at 30 mg/kg i.v., read-out: Max stim of spontaneous locomotor activity, Compound Alone
[14] = at the dose(s) [mg/kg] given in parentheses in the cell
[15] = Mus musculus, iv, at 10 mg/kg i.v., read-out: Max % inhibit of spontaneous locomotor activity, Compound Alone

Compound	ED50 (mice [1]; [7])	Ki (CB1 receptor; Ki (nM))	CB1 binding affinity, fold decrease on shortening the n-pentyl amide (CB1 receptor)	ED50 (mice [2]; [8])	ED50 (mice [3]; [9])	Max stim of spontaneous locomotor activity, Compound Alone (in words) (mice [3])	ED50 (mice [1]; [10])	ED50 (mice [2]; [11])	ED50 (mice [3]; [12])	Max stim of spontaneous locomotor activity, Compound with 3 mg/kg Δ^9-THC (mice [4])	change in vivo at 30 mg/kg (mice [3]; [13])	Max % inhibit of spontaneous locomotor activity, Compound Alone (in words: stimulation instead of inhibition) (mice [3])	RT: maximum % antagonism of 3 mg/kg Δ^9-THC (mice [5])	Ki (CB1 receptor; read-out: Ki)	inhibition in vivo at 10 mg/kg (mice [3]; [15])	other results
CCCNC(=O)c1nn(-c2ccc(Cl)cc2Cl)c(-c2ccc(Cl)cc2)c1C [Compound O-1399, N-(n-propyl)-5-(4-chlorophenyl)-1-(2,4-dichlorophenyl)-4-methyl-1H-pyrazole-3-carboxamide]	24 µmol/kg	167 ± 32 nM	5 fold	10 µmol/kg	9 µmol/kg	None (3, 10 & 30)										inhibition in vivo at 30 mg/kg (mice [3]; Mus musculus, iv, at 30 mg/kg i.v., read-out: Max % inhibit of spontaneous locomotor activity, Compound Alone): 100%
CCCCCc1ccc(-c2c(C)c(C(=O)NN3CCCCC3)nn2-c2ccc(Cl)cc2Cl)cc1 [Compound O-1302, N-(Piperidin-1-yl)-1-(2,4-dichlorophenyl)-4-methyl-5-(4-pentylphenyl)-1H-pyrazole-3-carboxamide]		2.1 ± 0.08 nM					> 30 mg/kg	> 30 mg/kg	> 30 mg/kg	107% (30)						CB1 receptor binding affinity, fold greater than SR 141716A (CB1 receptor; compared to SR 141716A): approximately 3 fold; inhibition in vivo at 3 mg/kg (mice [3]; Mus musculus, iv, at 3 mg/kg i.v., read-out: Max % inhibit of spontaneous locomotor activity, Compound Alone): 26%; change in vivo at 10 mg/kg (mice [3]; Mus musculus, iv, at 10 mg/kg i.v., read-out: Max stim of spontaneous locomotor activity, Compound Alone): 2%; Max % inhibit of spontaneous locomotor activity, Compound with 3 mg/kg Δ^9-THC (mice [4]; at 0.3 mg/kg i.v.): 74% (0.3); SA: maximum % antagonism of 3 mg/kg Δ^9-THC (mice [4]; at 1 mg/kg i.v.): 91% (1)
Cc1c(C(=O)NN2CCCCC2)nn(-c2ccccc2)c1-c1ccc(Cl)cc1 [Compound O-1300]		150 ± 20 nM					> 30 mg/kg	> 30 mg/kg	> 30 mg/kg		54%	stim at 30				CB1 binding affinity, fold less than SR 141716A (CB1 receptor; compared to SR 141716A): 24 fold
CCCCc1ccc(-n2nc(C(=O)NN3CCCCC3)c(C)c2-c2ccc(Cl)cc2)cc1 [Compound O-1254]		226 ± 4 nM					> 30 mg/kg	> 30 mg/kg	> 30 mg/kg	13% (30)	29%	stim at 3, 10 & 30	31% (10)			SA: maximum % antagonism of 3 mg/kg Δ^9-THC (in words) (mice [4]; [14]): stimulation; Max % inhibit of spontaneous locomotor activity, Compound with 3 mg/kg Δ^9-THC (in words) (mice [4]; doses in mg/kg): stim at 10; % MPE: maximum % antagonism of 3 mg/kg Δ^9-THC (mice [6]; at 30 mg/kg i.v.): 52% (30)
Cc1c(C(=O)NCCF)nn(-c2ccc(Cl)cc2Cl)c1-c1ccc(Cl)cc1 [Compound O-1398, N-(2-fluoroethyl)-5-(4-chlorophenyl)-1-(2,4-dichlorophenyl)-4-methyl-1H-pyrazol-3-carboxamide]	13 µmol/kg		27 fold	8 µmol/kg	7 µmol/kg	None (3, 10 & 30)								852 ± 175 nM	97%	CB1 binding affinity, further fold reduction (CB1 receptor; compared to the n-propyl compound O-1399): 5 fold
CCCCCc1ccc(-n2nc(C(=O)NN3CCCCC3)c(C)c2-c2ccc(Cl)cc2)cc1 [Compound O-1255]						None (3, 10 & 30)	> 30 mg/kg	> 30 mg/kg	> 30 mg/kg				14% (10)	433 ± 103 nM	20%	CB1 binding affinity, fold less than the n-butyl compound (CB1 receptor; compared to O-1254): ~2 fold; Max % inhibit of spontaneous locomotor activity, Compound with 3 mg/kg Δ^9-THC (mice [4]; at 10 mg/kg i.v.): 65% (10); SA: maximum % antagonism of 3 mg/kg Δ^9-THC (mice [4]; at 10 mg/kg i.v.): 0% (10); Max stim of spontaneous locomotor activity, Compound with 3 mg/kg Δ^9-THC (in words) (mice [4]; [14]): None (10); % MPE: maximum % antagonism of 3 mg/kg Δ^9-THC (mice [6]; at 10 mg/kg i.v.): 13% (10)
